Test results reported in patent EP4603105A1, “PHARMACEUTICAL COMPOSITION CONTAINING CYCLIC COMPOUND HAVING SELECTIVE KRAS INHIBITORY EFFECT AGAINST HRAS AND NRAS” (CHUGAI SEIYAKU KABUSHIKI KAISHA, priority 2022, dated 2024).

How the values were obtained:
HRAS wild-type protein = HRAS wild-type protein (Homo sapiens, UniProt P01112); test: Binding to HRAS by surface plasmon resonance (SPR), KD and KD ratio to KRAS; details: ratio of KD for HRAS wild-type protein to KD for KRAS
In short: (§1)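 Affinity is measured by surface plasmon resonance at 30°C against captured, GDP-loaded RAS carrying a biotinylated Avi tag. Compounds are titrated by single-cycle kinetics, and KD comes from a 1:1 fit.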

[1] = target: GDP-bound KRAS wild-type protein (Homo sapiens, UniProt P01116); test: Binding to KRAS by surface plasmon resonance (SPR), dissociation constant KD; details: Single Cycle Kinetics
In short: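 Running buffer contained 10 µM GDP and 10 mM MgCl2 to keep RAS in the GDP state, with 4% DMSO at pH 7.4. Compounds were flowed at 100 µL/min in 75 s steps of rising concentration over captured biotin-Avi RAS at 30°C. Sensorgrams were fitted 1:1 for KD.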

[2] = target: GDP-bound NRAS wild-type protein (Homo sapiens, UniProt P01111); test: Binding to NRAS by surface plasmon resonance (SPR), KD and KD ratio to KRAS; details: ratio of KD for GDP-bound NRAS wild-type protein to KD for KRAS
In short: as §1

[3] = test system: human lung cancer strain NCI-H441; test: NCI-H441 cell proliferation inhibitory activity (CellTiter-Glo, 4 days); format: cell-based; details: NCI-H441 cells, 4 days, read-out: NCl-H441 IC50
In short: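 Readout: […] after the ATP-based reagent. Compound: serial dilutions in dimethyl sulfoxide.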

Chain of GDP-bound KRAS wild-type protein (P01116 1-188 isoform P01116-2): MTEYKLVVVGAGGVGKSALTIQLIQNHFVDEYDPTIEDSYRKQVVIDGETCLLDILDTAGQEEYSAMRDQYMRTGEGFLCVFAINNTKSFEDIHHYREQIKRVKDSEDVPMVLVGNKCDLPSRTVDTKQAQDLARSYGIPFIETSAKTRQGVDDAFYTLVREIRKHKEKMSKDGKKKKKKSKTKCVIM
Chain of GDP-bound NRAS wild-type protein (P01111 whole entry): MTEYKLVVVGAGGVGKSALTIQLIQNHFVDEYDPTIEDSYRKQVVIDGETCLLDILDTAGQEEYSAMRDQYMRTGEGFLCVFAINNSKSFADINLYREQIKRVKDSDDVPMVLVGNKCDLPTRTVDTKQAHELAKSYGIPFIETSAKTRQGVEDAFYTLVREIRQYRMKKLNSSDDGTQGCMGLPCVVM
Chain of HRAS wild-type protein (P01112 whole entry): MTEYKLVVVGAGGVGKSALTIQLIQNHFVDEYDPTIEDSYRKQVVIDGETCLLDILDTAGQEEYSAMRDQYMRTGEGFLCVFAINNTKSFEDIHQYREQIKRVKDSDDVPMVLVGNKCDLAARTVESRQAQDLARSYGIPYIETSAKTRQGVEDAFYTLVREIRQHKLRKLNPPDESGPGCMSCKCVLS

Compound | HRAS /KRAS (HRAS wild-type protein) | Kd [1] [nM] | NRAS /KRAS [2] | IC50 [3] [nM]
CCC[C@H]1C(=O)N[C@@H]([C@@H](C)CC)C(=O)N(C2CC2)CC(=O)N(C)[C@H]2C/C=C\CCN(C2=O)[C@@H](Cc2ccc(C)cc2)C(=O)N(C)CC(=O)N[C@@H](CCc2cc(F)c(C(F)(F)F)c(F)c2)C(=O)N2CC[C@H](OC)[C@H]2C(=O)N(C)C2(CCC2)C(=O)N(C)[C@@H](C2CCCC2)C(=O)N(C)[C@H](C(=O)N(C)C)CC(=O)N1C [PP3285] | A (a compound having 10 or more and less than 20 is denoted as A) | 0.15 | A (a compound having 10 or more and less than 20 is denoted as A) | 9.3
CCC[C@H]1C(=O)N[C@@H]([C@@H](C)CC)C(=O)N2CCC[C@H]2C(=O)N(C)[C@H]2C/C=C\CCN(C2=O)[C@@H](Cc2ccc(C)cc2)C(=O)N(C)CC(=O)N[C@@H](CCc2cc(F)c(C(F)(F)F)c(F)c2)C(=O)N2CC[C@H](OC)[C@H]2C(=O)N(C)C2(CCC2)C(=O)N(C)[C@@H](C2CCCC2)C(=O)N(C)[C@H](C(=O)N(C)C)CC(=O)N1C [PP3286] | A (a compound having 10 or more and less than 20 is denoted as A) | 0.15 | A (a compound having 10 or more and less than 20 is denoted as A) | 11.4
CCC[C@H]1C(=O)N[C@@H]([C@@H](C)CC)C(=O)N(C)CC(=O)N(C)[C@H]2C/C=C\CCN(C2=O)[C@@H](Cc2ccc(C)cc2)C(=O)N(C)CC(=O)N[C@@H](CCc2cc(F)c(C(F)(F)F)c(F)c2)C(=O)N2CC[C@H](OC)[C@H]2C(=O)N(C)C2(CCC2)C(=O)N(C)[C@@H](C2CCCC2)C(=O)N(C)[C@H](C(=O)N(C)C)CC(=O)N1C [PP3287] | B (a compound having 3 or more and less than 10 is denoted as B) | 0.057 | A (a compound having 10 or more and less than 20 is denoted as A) | 5.4
CCC[C@H]1C(=O)N[C@@H]([C@@H](C)CC)C(=O)N(C2CC2)CC(=O)N(C)[C@H]2C/C=C\CCN(C2=O)[C@@H](Cc2ccc(C(F)(F)F)cc2)C(=O)N(C)CC(=O)N[C@@H](CCc2ccc(C(F)(F)F)c(Cl)c2)C(=O)N2CC[C@H](OC)[C@H]2C(=O)N(C)C2(CCC2)C(=O)N(C)[C@@H](C2CCCC2)C(=O)N(C)[C@H](C(=O)N(C)C)CC(=O)N1C [PP3288] | A (a compound having 10 or more and less than 20 is denoted as A) | 0.21 | A (a compound having 10 or more and less than 20 is denoted as A) | 6.9
CCC[C@H]1C(=O)N[C@@H]([C@@H](C)CC)C(=O)N2CCC[C@H]2C(=O)N(C)[C@H]2C/C=C\CCN(C2=O)[C@@H](Cc2ccc(C(F)(F)F)cc2)C(=O)N(C)CC(=O)N[C@@H](CCc2ccc(C(F)(F)F)c(Cl)c2)C(=O)N2CC[C@H](OC)[C@H]2C(=O)N(C)C2(CCC2)C(=O)N(C)[C@@H](C2CCCC2)C(=O)N(C)[C@H](C(=O)N(C)C)CC(=O)N1C [PP3289] | A (a compound having 10 or more and less than 20 is denoted as A) | 0.26 | A (a compound having 10 or more and less than 20 is denoted as A) | 17.6
CCC[C@H]1C(=O)N[C@@H]([C@@H](C)CC)C(=O)N(C)CC(=O)N(C)[C@H]2C/C=C\CCN(C2=O)[C@@H](Cc2ccc(C)cc2)C(=O)N(C)CC(=O)N[C@@H](CCc2ccc(C(F)(F)F)c(OC)c2)C(=O)N2CC3(CC3)C[C@H]2C(=O)N(C)C2(CCC2)C(=O)N(C)[C@@H](C2CCCC2)C(=O)N(C)[C@H](C(=O)N(C)C)CC(=O)N1C [PP3290] | B (a compound having 3 or more and less than 10 is denoted as B) | 0.021 | A (a compound having 10 or more and less than 20 is denoted as A) | 1.9
CCC[C@H]1C(=O)N[C@@H]([C@@H](C)CC)C(=O)N(C)CC(=O)N(C)[C@H]2C/C=C\CCN(C2=O)[C@@H](Cc2ccc(C(F)(F)F)cc2)C(=O)N(C)CC(=O)N[C@@H](CCc2ccc(C(F)(F)F)c(OC)c2)C(=O)N2CC3(CC3)C[C@H]2C(=O)N(C)C2(CCC2)C(=O)N(C)[C@@H]([C@@H](C)CC)C(=O)N(C)[C@H](C(=O)N(C)C)CC(=O)N1C [PP3291] | B (a compound having 3 or more and less than 10 is denoted as B) | 0.85 | A (a compound having 10 or more and less than 20 is denoted as A) | 3.7
CCC[C@H]1C(=O)N[C@@H]([C@@H](C)CC)C(=O)N(C)CC(=O)N(C)[C@H]2C/C=C\CCN(C2=O)[C@@H](Cc2ccc(C)cc2)C(=O)N(C)CC(=O)N[C@@H](CCc2ccc(C(F)(F)F)c(OC)c2)C(=O)N2CC3(CC3)C[C@H]2C(=O)N(C)C2(CCC2)C(=O)N(C)[C@@H](C(CC)CC)C(=O)N(C)[C@H](C(=O)N(C)C)CC(=O)N1C [PP3292] | A (a compound having 10 or more and less than 20 is denoted as A) | 0.13 | A (a compound having 10 or more and less than 20 is denoted as A) | 5.4
CCC[C@H]1C(=O)N[C@@H]([C@@H](C)CC)C(=O)N(C)CC(=O)N(C)[C@H]2C/C=C\CCN(C2=O)[C@@H](Cc2ccc(C)cc2)C(=O)N(C)CC(=O)N[C@@H](CCc2ccc(C(F)(F)F)c(OC)c2)C(=O)N2CC3(CC3)C[C@H]2C(=O)N(C)C2(CCC2)C(=O)N(C)[C@@H]([C@@H](C)CC)C(=O)N(C)[C@H](C(=O)N(C)C)CC(=O)N1C [PP3294] | A (a compound having 10 or more and less than 20 is denoted as A) | 0.099 | A (a compound having 10 or more and less than 20 is denoted as A) | 3.4
CCC[C@H]1C(=O)N[C@@H]([C@@H](C)CC)C(=O)N(C)CC(=O)N(C)[C@H]2C/C=C\CCN(C2=O)[C@@H](Cc2ccc(C)cc2)C(=O)N(C)CC(=O)N[C@@H](CCc2ccc(C(F)(F)F)c(OC)c2)C(=O)N2CC3(CC3)C[C@H]2C(=O)N(C)C2(CCC2)C(=O)N(C)[C@@H](CC(C)(C)C)C(=O)N(C)[C@H](C(=O)N(C)C)CC(=O)N1C [PP3296] | C (A compound having a KD ratio of 0.1 or more and less than 3 is denoted as C) | 0.079 | B (a compound having 3 or more and less than 10 is denoted as B) | 1.4
CCC[C@H]1C(=O)N[C@@H]([C@@H](C)CC)C(=O)N(C)CC(=O)N(C)[C@H]2C/C=C\CCN(C2=O)[C@@H](Cc2ccc(C(F)(F)F)cc2)C(=O)N(C)CC(=O)N[C@@H](CCc2ccc(C(F)(F)F)c(Cl)c2)C(=O)N2CC3(CC3)C[C@H]2C(=O)N(C)C2(CCC2)C(=O)N(C)[C@@H](C(CC)CC)C(=O)N(C)[C@H](C(=O)N(C)C)CC(=O)N1C [PP3297] | B (a compound having 3 or more and less than 10 is denoted as B) | 0.48 | A (a compound having 10 or more and less than 20 is denoted as A) | 10.2
CCC[C@H]1C(=O)N[C@@H]([C@@H](C)CC)C(=O)N(C)CC(=O)N(C)[C@H]2C/C=C\CCN(C2=O)[C@@H](Cc2ccc(C)cc2)C(=O)N(C)CC(=O)N[C@@H](CCc2ccc(C(F)(F)F)c(Cl)c2)C(=O)N2CC3(CC3)C[C@H]2C(=O)N(C)C2(CCC2)C(=O)N(C)[C@@H](C2CCCC2)C(=O)N(C)[C@H](C(=O)N(C)C)CC(=O)N1C [PP3298] | B (a compound having 3 or more and less than 10 is denoted as B) | 0.34 | B (a compound having 3 or more and less than 10 is denoted as B) | 3.4
CCC[C@H]1C(=O)N[C@@H]([C@@H](C)CC)C(=O)N(C)CC(=O)N(C)[C@H]2C/C=C\CCN(C2=O)[C@@H](Cc2ccc(C(F)(F)F)cc2)C(=O)N(C)CC(=O)N[C@@H](CCc2ccc(C(F)(F)F)c(Cl)c2)C(=O)N2CC3(CC3)C[C@H]2C(=O)N(C)C2(CCC2)C(=O)N(C)[C@@H]([C@@H](C)CC)C(=O)N(C)[C@H](C(=O)N(C)C)CC(=O)N1C [PP3299] | A (a compound having 10 or more and less than 20 is denoted as A) | 0.11 | A (a compound having 10 or more and less than 20 is denoted as A) | 8.1
CCC[C@H]1C(=O)N[C@@H]([C@@H](C)CC)C(=O)N(C)CC(=O)N(C)[C@H]2C/C=C\CCN(C2=O)[C@@H](Cc2ccc(C)cc2)C(=O)N(C)CC(=O)N[C@@H](CCc2ccc(C(F)(F)F)c(Cl)c2)C(=O)N2CC3(CC3)C[C@H]2C(=O)N(C)C2(CCC2)C(=O)N(C)[C@@H](C(CC)CC)C(=O)N(C)[C@H](C(=O)N(C)C)CC(=O)N1C [PP3300] | B (a compound having 3 or more and less than 10 is denoted as B) | 0.13 | A (a compound having 10 or more and less than 20 is denoted as A) | 11.2
CCC[C@H]1C(=O)N[C@@H]([C@@H](C)CC)C(=O)N(C)CC(=O)N(C)[C@H]2C/C=C\CCN(C2=O)[C@@H](Cc2ccc(C)cc2)C(=O)N(C)CC(=O)N[C@@H](CCc2ccc(C(F)(F)F)c(Cl)c2)C(=O)N2CC3(CC3)C[C@H]2C(=O)N(C)C2(CCC2)C(=O)N(C)[C@@H]([C@@H](C)CC)C(=O)N(C)[C@H](C(=O)N(C)C)CC(=O)N1C [PP3302] | A (a compound having 10 or more and less than 20 is denoted as A) | 0.081 | A (a compound having 10 or more and less than 20 is denoted as A) | 9
CCC[C@H]1C(=O)N[C@@H](C2CCCC2)C(=O)N(C)CC(=O)N(C)[C@H]2C/C=C\CCN(C2=O)[C@@H](Cc2ccc(C(F)(F)F)cc2)C(=O)N(C)CC(=O)N[C@@H](CCc2cc(F)c(C(F)(F)F)c(F)c2)C(=O)N2CC3(CC3)C[C@H]2C(=O)N(C)C2(CCC2)C(=O)N(C)[C@@H](C(CC)CC)C(=O)N(C)[C@H](C(=O)N(C)C)CC(=O)N1C [PP3305] | A (a compound having 10 or more and less than 20 is denoted as A) | 0.68 | AA (a compound having 20 or more is denoted as AA) | 20.3
